Laboratory results: patent US12643889B2, “Synthesis of novel EP4 antagonist and use in cancer and inflammation” (Wuhan Humanwell Innovative Drug Research And Development …, priority 2020, dated 2026)

Legend:
human EP4 receptor [1] = target: T1, human EP4 receptor (Homo sapiens, UniProt P35408); assay: Assay of calcium current inhibition on EP4 receptor (FLIPR, 293 cells); type: cell-based; set-up: expressed in transfected cells; host or cells: 293 cells; settings: for IC50: 293 cells overexpressing human EP4, PGE2 at EC80, FLIPR
Protocol: The cells were rapidly thawed in a 37° C. water bath, centrifuged, resuspended, and counted. The cell suspensions were seeded at 20 μL/well in two 384-well plates (20,000 cells/well) and placed in an incubator (a 37° C., 5% CO2) overnight. Preparation of a 2× Fluo-4 Direct™ (Invitrogen, Cat #F10471) loading buffer: 77 mg of probenecid was added to 1 mL of a FLIPR buffer, with a concentration of 250 mM. 10 mL of FLIPR buffer and 0.2 mL of probenecid (250 mM) were added to each tube of Fluo-4 Direct™ crystals (F10471).
One of the cell plates was taken out of the incubator and the medium was removed. 20 μL of an assay buffer and 2× Fluo-4 Direct™ non-wash loading buffer were added to the 384-well cell culture plate to a final volume of 40 μL, and then the culture plate was incubated in an incubator (a 37° C., 5% CO2) for 50 minutes, and then at room temperature for 10 minutes, and then the plate was placed in the FLIPR. 10 μL of the buffer was transferred to the cell plate and the fluorescence signal was read. The agonist PGE2 was formulated as a 10 mM stock in a DMSO solvent and 10 concentration points of the 6× working solution were serially diluted using the buffer. 10 μL of the agonist PGE2 was transferred to the cell plate, the fluorescence signal was read to calculate EC80 value.
The agonist PGE2 was prepared at 6× EC80 concentration and the compound to be tested was formulated as a 10 mM stock solution in the DMSO solvent and 10 concentration points of the 6× compound working solution was serially diluted using the buffer.
Another cell plate was taken to remove media and 20 μL of the assay buffer and 2× Fluo-4 Direct™ non-wash loading buffer were added; the cell plate was incubated in a 37° C., 5% CO2 incubator for 50 minutes and room temperature for 10 minutes and then placed in the FLIPR. 10 μL of the compound working solution, DMSO, and the EP4 full antagonist were transferred to the cell plate and the fluorescence signal was read. […] Inhibition (%)=100−(test group−EP4 full antagonist group)/(DMSO group−EP4 full antagonist group)*100
Compound's IC50 value of EP4 calcium current inhibition was calculated based on the inhibition rate at different concentrations of the compound.

[2] = target: T2, recombinant human EP4 receptor membrane protein (Homo sapiens, UniProt P35408); assay: Radioligand binding assay for EP4 receptor ([3H]-PGE2); settings: [3H]-PGE2 1.5 nM; membrane protein 20 μg/well
T2 construct: expressed in transfected cells; host or cells: membranes of 293 cells overexpressing human EP4 receptor
Protocol: The compounds to be tested and PGE2 were formulated as 10 mM stocks in a DMSO solvent, and then 8 concentration points of 4× working solution were serially diluted using a buffer (50 mM HBSS, 0.1% BSA, 500 mM NaCl). […] Unifilter-96 GF/C filter plate (Perkin Elmer) was soaked with 0.5% BSA, 50 μL per well, for at least 30 min at room temperature. After binding was complete, the reaction mixture was harvested through a GF/C plate using a Perkin Elmer Filtermate Harvester, followed by washing the filter plate and drying the filter plate for 1 hour at 50° C. After drying, the bottom of the filter plate wells was sealed using a Perkin Elmer Unifilter-96 sealing tape, and 50 μL of MicroScint™-20 cocktail (Perkin Elmer) was added to seal the top of the filter plate. The ^3H counts captured on the filter were read using a Perkin Elmer MicroBeta2 Reader.
The IC50 and Ki values of the compounds determined by the radioligand binding assay for EP4 receptor were calculated based on the inhibition rate of the different concentrations of the compounds.

human EP4 receptor [3] = target: T1, human EP4 receptor; assay: Assay for EP4 antagonistic effect (cAMP, PGE2-stimulated CHO stable cell line)
Protocol: After trypsinization, cells were resuspended in a buffer (1×HBSS, 0.1% BSA, 20 mM HEPES, and 500 μM IBMX) and 8000 cells were seeded per well in 384-well plates in a seeding volume of 15 μL. A working solution the compound with a 8× concentration was prepared with an experimental buffer, and then 2.5 μL of the working solution of the compound with 8× concentration was added to the 384-well plate, respectively, and incubated at 37° C. for 30 min. An agonist PGE2 working solution with 8× concentration of (4 nM) was prepared with the experimental buffer and 2.5 μL per well was added to the 384-well plate (the final PGE2 concentration was 0.5 nM) and incubated at 37° C. for 30 min. After the reaction was completed, the amount of cAMP in the cells was quantified according to the method in the instructions of the cAMP test kit (Perkin Elmer, Cat #TRF0263). The antagonistic effects (IC50 value) were calculated for the test compounds.

[4] = Mouse pharmacokinetic assay; type: in vivo, male ICR mice; settings: male, ICR, plasma, oral gavage administration 5 mg/kg
Protocol: (§1) In a mouse pharmacokinetic assay, male ICR mice (20 g to 25 g) were selected and fasted overnight. Three mice were selected and intragastrically administered with 5 mg/kg of the corresponding compound. The blood of the mice was collected before the administration and at 15 min, 30 min, 1 h, 2 h, 4 h, 8 h, 24 h after the administration. Another 3 mice were intravenously administered with 1 mg/kg of the corresponding compound, and the blood thereof was collected before the administration and at 15 min, 30 min, 1 h, 2 h, 4 h, 8 h, 24 h after the administration. The blood samples were centrifuged at 6800 g at 2° C. to 8° C. for 6 minutes, and plasma was collected and stored at −80° C. The plasma was taken at respective time point, mixed with 3-5 times the amount of acetonitrile containing internal standard, vortexed for 1 minute, centrifuged at 4° C. for 10 minutes at 13000 rpm, supernatant was added 3 times the amount of water, and the appropriate mixture was taken for LC-MS/MS analysis. The primary pharmacokinetic parameters were analyzed with a WinNonlin 7.0 software, with non-compartmental model.

[5] = Rat pharmacokinetic assay; type: in vivo, male SD rats; settings: male, SD, plasma, rat, intravenous administration 1 mg/kg
Protocol: as §1
In a rat pharmacokinetic assay, male SD rats (180 g to 240 g) were selected and fasted overnight. Three rats were intragastrically administered with 5 mg/kg of the corresponding compound. Another 3 rats were intravenously administered with 1 mg/kg of the corresponding compound. The following operations were the same as the mouse pharmacokinetic assay.

T2 sequence (P35408 whole entry): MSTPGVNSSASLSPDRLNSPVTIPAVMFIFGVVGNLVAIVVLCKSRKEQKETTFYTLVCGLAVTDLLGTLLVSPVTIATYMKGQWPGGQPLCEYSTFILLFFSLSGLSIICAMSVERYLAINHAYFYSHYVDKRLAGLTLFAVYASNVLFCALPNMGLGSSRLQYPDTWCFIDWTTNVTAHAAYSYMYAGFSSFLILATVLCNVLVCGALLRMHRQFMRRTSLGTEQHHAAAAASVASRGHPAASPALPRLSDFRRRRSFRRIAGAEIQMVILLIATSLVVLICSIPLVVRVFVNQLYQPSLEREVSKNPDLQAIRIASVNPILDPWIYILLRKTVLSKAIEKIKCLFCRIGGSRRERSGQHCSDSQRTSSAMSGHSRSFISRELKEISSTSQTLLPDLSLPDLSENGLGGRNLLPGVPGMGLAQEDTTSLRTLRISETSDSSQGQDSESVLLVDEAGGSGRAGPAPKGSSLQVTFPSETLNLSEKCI
T1 sequence (P35408 whole entry): as above

SMILES | IC50 (human EP4 receptor [1]) | IC50 [2] | Ki [2] | also measured
C[C@H](NC(=O)c1c(C(F)F)nn(C)c1Oc1cccc(C2CC2)c1)c1ccc(C(=O)O)cc1 [Compound I-3, (S)-4-(1-(5-(3-cyclopropylphenoxy)-3-(difluoromethyl)-1-methyl-1H-pyrazole-4-carboxamido)ethyl)benzoic Acid] | 3 nM | 9 nM | 4.9 nM | IC50 (human EP4 receptor [3]): 2.8 nM
CC(C)c1cccc(Oc2c(C(=O)N[C@@H](C)c3ccc(C(=O)O)cc3)c(C(F)F)nn2C)c1 [Compound I-4, (S)-4-(1-(3-(difluoromethyl)-5-(3-isopropylphenoxy)-1-methyl-1H-pyrazole-4-carboxamido)ethyl)benzoic Acid] | 4 nM | 7.4 nM | 4 nM | increase of inhibition effect on the calcium current of EP4 compared with the control compound (human EP4 receptor [1]; compared with the control compound): more than 5 time
CCc1cc(F)cc(Oc2c(C(=O)N[C@@H](C)c3ccc(C(=O)O)cc3)c(C(F)F)nn2C)c1 [Compound I-12, (S)-4-(1-(3-(difluoromethyl)-5-(3-ethyl-5-fluorophenoxy)-1-methyl-1H-pyrazole-4-carboxamido)ethyl)benzoic Acid] | 19 nM |  |  | 
C[C@H](NC(=O)c1c(C(F)F)nn(C)c1Oc1cccc(SC(F)(F)F)c1)c1ccc(C(=O)O)cc1 [Compound I-29, (S)-4-(1-(3-(difluoromethyl)-1-methyl-5-(3-((trifluoromethyl)thio)phenoxy)-1H-pyrazole-4-carboxamido)ethyl)benzoic Acid] |  |  |  | IC50 (human EP4 receptor [3]): 14 nM
C[C@H](NC(=O)c1c(C(F)F)nn(C)c1Oc1cccc(OCC(F)(F)F)c1)c1ccc(C(=O)O)cc1 [Compound I-33, (S)-4-(1-(3-(difluoromethyl)-1-methyl-5-(3-(2,2,2-trifluoroethoxy)phenoxy)-1H-pyrazole-4-carboxamido)ethyl)benzoic Acid] | 12 nM | 31 nM | 17 nM | AUC(0-t) [4]: 8290 ng·h/mL; Cmax [4]: 2530 ng/mL; Tmax [4]: 0.33 h; half-life [4]: 8.22 h; AUC(0-t) [5]: 4670 ng·h/mL; clearance [5]: 3.67 mL/min/kg; half-life [5]: 9.02 h; Vd ([5]; read-out: Vz): 2.72 L/kg
CCc1cccc(Oc2c(C(=O)N[C@@H](C)c3ccc(C(=O)O)cc3)c(C)nn2C)c1 [Compound I-9, (S)-4-(1-(5-(3-ethylphenoxy)-1,3-dimethyl-1H-pyrazole-4-carboxamido)ethyl) benzoic Acid] |  |  |  | IC50 (human EP4 receptor [3]): 29 nM
C[C@H](NC(=O)c1c(C(F)F)nn(C)c1Oc1ccc(-c2ccccc2)cc1)c1ccc(C(=O)O)cc1 [Compound I-26, (S)-4-(1-(5-([1,1′-biphenyl]-4-yloxy)-3-(difluoromethyl)-1-methyl-1H-pyrazole-4-carboxamido)ethyl)benzoic Acid] | 8.5 nM |  |  | 
CC(O)c1cc(Oc2c(C(=O)N[C@@H](C)c3ccc(C(=O)O)cc3)c(C(F)F)nn2C)ccc1F (stereo partly drawn) [Compound I-23, 4-((1S)-1-(3-(difluoromethyl)-5-(4-fluoro-3-(1-hydroxyethyl)phenoxy)-1-methyl-1H-pyrazole-4-carboxamido)ethyl)benzoic Acid] |  | 13 nM | 7 nM | 
CC(F)c1cccc(Oc2c(C(=O)N[C@@H](C)c3ccc(C(=O)O)cc3)c(C(F)F)nn2C)c1 (stereo partly drawn) [Compound I-13, 4-((1S)-1-(3-(difluoromethyl)-5-(3-(1-fluoroethyl)phenoxy)-1-methyl-1H-pyrazole-4-carboxamido)ethyl)benzoic Acid] | 10 nM |  |  | 
CCc1cc(Oc2c(C(=O)N[C@@H](C)c3ccc(C(=O)O)cc3)c(C(F)F)nn2C)ccc1C [Compound I-17, (S)-4-(1-(3-(difluoromethyl)-5-(3-ethyl-4-methylphenoxy)-1-methyl-1H-pyrazole-4-carboxamido)ethyl)benzoic Acid] | 18 nM |  |  | 
CC(c1cccc(Oc2c(C(=O)N[C@@H](C)c3ccc(C(=O)O)cc3)c(C(F)F)nn2C)c1)C(F)(F)F (stereo partly drawn) [Compound I-15, 4-((1S)-1-(3-(difluoromethyl)-1-methyl-5-(3-(1,1,1-trifluoropropan-2-yl)phenoxy)-1H-pyrazole-4-carboxamido)ethyl)benzoic Acid] | 18 nM | 12 nM | 6.6 nM | 

Continued, in another order:

IC50 (human EP4 receptor [1]) | IC50 [2] | Ki [2] | SMILES | also measured
8 nM | 6.8 nM | 3.7 nM | CCc1cc(Oc2c(C(=O)N[C@@H](C)c3ccc(C(=O)O)cc3)c(C(F)F)nn2C)ccc1Cl [Compound I-11, (S)-4-(1-(5-(4-chloro-3-ethylphenoxy)-3-(difluoromethyl)-1-methyl-1H-pyrazole-4-carboxamido)ethyl)benzoic Acid] | 
15 nM | 12 nM | 6.6 nM | CSc1cccc(Oc2c(C(=O)N[C@@H](C)c3ccc(C(=O)O)cc3)c(C(F)F)nn2C)c1 [Compound I-30, (S)-4-(1-(3-(difluoromethyl)-1-methyl-5-(3-(methylthio)phenoxy)-1H-pyrazole-4-carboxamido)ethyl)benzoic Acid] | IC50 (human EP4 receptor [3]): 12 nM
16.5 nM |  |  | Cc1nn(C)c(Oc2cccc(C(C)(F)F)c2)c1C(=O)N[C@@H](C)c1ccc(C(=O)O)cc1 [Compound I-8, (S)-4-(1-(5-(3-(1,1-difluoroethyl)phenoxy)-1,3-dimethyl-1H-pyrazole-4-carboxamido)ethyl)benzoic Acid] | 
8 nM |  |  | C[C@H](NC(=O)c1c(C(F)F)nn(C)c1Oc1cccc(S(F)(F)(F)(F)F)c1)c1ccc(C(=O)O)cc1 [Compound I-28, (S)-4-(1-(3-(difluoromethyl)-1-methyl-5-(3-(pentafluoro-λ^6-sulfanyl)phenoxy)-1H-pyrazole-4-carboxamido)ethyl)benzoic Acid] | IC50 (human EP4 receptor [3]): 5.7 nM
14 nM | 4 nM | 2.2 nM | C[C@H](NC(=O)c1c(C(F)F)nn(C)c1Oc1ccc(F)c(C(C)(F)F)c1)c1ccc(C(=O)O)cc1 [Compound I-10, (S)-4-(1-(5-(3-(1,1-difluoroethyl)-4-fluorophenoxy)-3-(difluoromethyl)-1-methyl-1H-pyrazole-4-carboxamido)ethyl)benzoic Acid] | 
16 nM |  |  | Cc1cc(Oc2c(C(=O)N[C@@H](C)c3ccc(C(=O)O)cc3)c(C(F)F)nn2C)cs1 [Compound I-41, (S)-4-(1-(3-(difluoromethyl)-1-methyl-5-((5-methylthiophen-3-yl)oxy)-1H-pyrazole-4-carboxamido)ethyl)benzoic Acid] | 
